Data: publication PMC4794209, “Preformulation Studies on Piperlongumine” (PLoS ONE, 2016)

Assay: Aqueous stability studies (pH, temperature, ionic strength)
Type: physicochemical
Description: Aqueous stability studies for piperlongumine were conducted in three buffer systems: citrate (pH 3, 4, and 5); phosphate (pH 5, 6, and 7); and borate (pH 8 and 9). The ionic strength for the solutions was also varied, utilizing approximately 0.2 or 0.5 M. Each buffered sample was prepared with 10% acetonitrile as a cosolvent, then sealed and protected from light. Samples were stored at four different temperatures: 4°C (for samples at pH 3, 8 and 9 only), 26°C, 56°C and 67°C. Aliquots were regularly withdrawn for analysis. Changes in pH, if any, were also monitored. Stability studies were carried out for 18 months or until complete degradation occurred.
Apparent first order degradation was also obtained for the 4, […] and 67°C degradation profiles. Degradation rate constants, k-values, for piperlongumine were calculated using the slopes of the trend lines of each profile.
An Arrhenius plot of log k versus the reciprocal of the temperature (Fig 9) was utilized to determine the length of time it takes for piperlongumine to degrade 50% (T50) and 10% (T90). For a given pH the Arrhenius equation was utilized: Log k = log A − (Ea/2.303 RT) (1) Where: […]

[1] = pH 3, citrate, ionic strength 0.2, 25°C
[2] = pH 3, citrate, ionic strength 0.5, 25°C
[3] = pH 5, citrate, ionic strength 0.2, 25°C
[4] = pH 5, phosphate, ionic strength 0.2, 25°C
[5] = pH 5, phosphate, ionic strength 0.5, 25°C
[6] = pH 6, phosphate, ionic strength 0.2, 25°C
[7] = pH 7, phosphate, ionic strength 0.2, 25°C
[8] = pH 8, borate, ionic strength 0.2, 25°C
[9] = pH 9, borate, ionic strength 0.2, 25°C
[10] = pH 9, borate, ionic strength 0.5, 25°C

## COc1cc(/C=C/C(=O)N2CCC=CC2=O)cc(OC)c1OC [piperlongumine, 1-[(2E)-3-(3,4,5-trimethoxyphenyl)prop-2-enoyl]-1,2,5,6-tetrahydropyridin-2-one]
0.2 M vs 0.5 M, pH 9, borate buffer
  Effect of ionic strength on degradation rate: No difference in degradation rate
56°C, several pH conditions
  Kinetics of thermal degradation: first order degradation kinetics
Citrate vs phosphate, pH 5
  Effect of buffer species on degradation rate: degradation rates are similar
Increase from approximately 0.2 M to 0.5 M, pH 3 and pH 5
  Effect of ionic strength on stability half-life: nominal effects
pH 3, citrate, ionic strength 0.2
  Ea: 21.2 kcal/mol
[1]
  T50 at 25°C: 69.6 weeks
  T90 at 25°C: 10.6 weeks
pH 3, citrate, ionic strength 0.2, 26°C
  k values 26°C: 0.0110 weeks^-1
pH 3, citrate, ionic strength 0.2, 56°C
  k values 56°C: 0.3057 weeks^-1
pH 3, citrate, ionic strength 0.2, 67°C
  k values 67°C: 0.7808 weeks^-1
pH 3, citrate, ionic strength 0.5
  Ea: 22.1 kcal/mol
[2]
  T50 at 25°C: 75.4 weeks
  T90 at 25°C: 11.5 weeks
pH 3, citrate, ionic strength 0.5, 26°C
  k values 26°C: 0.0101 weeks^-1
pH 3, citrate, ionic strength 0.5, 56°C
  k values 56°C: 0.3413 weeks^-1
pH 3, citrate, ionic strength 0.5, 67°C
  k values 67°C: 0.8383 weeks^-1
pH 3 citrate, 26°C, from Table 1
  T90 without hydrogen peroxide: about 9.5 weeks
pH 4, citrate, ionic strength 0.2
  Ea: 20.3 kcal/mol
pH 4, citrate, ionic strength 0.2, 25°C
  T50 at 25°C: 112.9 weeks
pH 4, citrate, ionic strength 0.2, 26°C
  k values 26°C: 0.0067 weeks^-1
pH 4, citrate, ionic strength 0.2, 56°C
  k values 56°C: 0.1739 weeks^-1
pH 4, citrate, ionic strength 0.2, 67°C
  k values 67°C: 0.3813 weeks^-1
pH 5, citrate, ionic strength 0.2
  Ea: 20.7 kcal/mol
[3]
  T50 at 25°C: 87.6 weeks
  T90 at 25°C: 13.3 weeks
pH 5, citrate, ionic strength 0.2, 26°C
  k values 26°C: 0.0090 weeks^-1
pH 5, citrate, ionic strength 0.2, 56°C
  k values 56°C: 0.2045 weeks^-1
pH 5, citrate, ionic strength 0.2, 67°C
  k values 67°C: 0.6125 weeks^-1
pH 5, phosphate, ionic strength 0.2
  Ea: 21.5 kcal/mol
[4]
  T50 at 25°C: 101.5 weeks
  T90 at 25°C: 15.4 weeks
pH 5, phosphate, ionic strength 0.2, 26°C
  k values 26°C: 0.0076 weeks^-1
pH 5, phosphate, ionic strength 0.2, 56°C
  k values 56°C: 0.2201 weeks^-1
pH 5, phosphate, ionic strength 0.2, 67°C
  k values 67°C: 0.5741 weeks^-1
pH 5, phosphate, ionic strength 0.5
  Ea: 20.3 kcal/mol
[5]
  T50 at 25°C: 88.7 weeks
  T90 at 25°C: 13.5 weeks
pH 5, phosphate, ionic strength 0.5, 26°C
  k values 26°C: 0.0090 weeks^-1
pH 5, phosphate, ionic strength 0.5, 56°C
  k values 56°C: 0.1764 weeks^-1
pH 5, phosphate, ionic strength 0.5, 67°C
  k values 67°C: 0.5741 weeks^-1
pH 6, phosphate, ionic strength 0.2
  Ea: 22.7 kcal/mol
[6]
  T50 at 25°C: 75.5 weeks
  T90 at 25°C: 11.5 weeks
pH 6, phosphate, ionic strength 0.2, 26°C
  k values 26°C: 0.0108 weeks^-1
pH 6, phosphate, ionic strength 0.2, 56°C
  k values 56°C: 0.2919 weeks^-1
pH 6, phosphate, ionic strength 0.2, 67°C
  k values 67°C: 1.1652 weeks^-1
pH 7, phosphate, ionic strength 0.2
  Ea: 22.5 kcal/mol
[7]
  T50 at 25°C: 16.0 weeks
  T90 at 25°C: 2.4 weeks
pH 7, phosphate, ionic strength 0.2, 26°C
  k values 26°C: 0.0506 weeks^-1
pH 7, phosphate, ionic strength 0.2, 56°C
  k values 56°C: 1.3607 weeks^-1
pH 7, phosphate, ionic strength 0.2, 67°C
  k values 67°C: 5.1370 weeks^-1
pH 8, borate, ionic strength 0.2
  Ea: 19.8 kcal/mol
pH 8, borate, ionic strength 0.2, 4°C
  k values 4°C: 0.0232 weeks^-1
[8]
  T50 at 25°C: 2.0 weeks
  T90 at 25°C: 0.3 weeks
pH 8, borate, ionic strength 0.2, 26°C
  k values 26°C: 0.5120 weeks^-1
pH 8, borate, ionic strength 0.2, 56°C
  k values 56°C: 7.2924 weeks^-1
pH 8, borate, ionic strength 0.2, 67°C
  k values 67°C: 20.933 weeks^-1
pH 9, borate, ionic strength 0.2
  Ea: 22.7 kcal/mol
pH 9, borate, ionic strength 0.2, 4°C
  k values 4°C: 0.1182 weeks^-1
[9]
  T50 at 25°C: 0.3 weeks
  T90 at 25°C: 0.05 weeks
pH 9, borate, ionic strength 0.2, 26°C
  k values 26°C: 2.4375 weeks^-1
pH 9, borate, ionic strength 0.5
  Ea: 22.7 kcal/mol
pH 9, borate, ionic strength 0.5, 4°C
  k values 4°C: 0.1171 weeks^-1
[10]
  T50 at 25°C: 0.3 weeks
  T90 at 25°C: 0.05 weeks
pH 9, borate, ionic strength 0.5, 26°C
  k values 26°C: 2.4372 weeks^-1
pH degradation rate profile, 26, 56, 67°C
  pH of maximum stability: ~4
pH values ≥ 7 and 3, various temperatures
  Stability in pH degradation rate profile: significant instability
Stability samples at pH 3, 5 and 8, LC-MS
  Major degradation products: 3,4,5- trimethoxycinnamic acid and piperlongumic acid
